Literature values in patent US20130115640A1, “ACTH for Treatment of Kidney Disease” (priority 2011, published 2013).

Test system: TGF-β
Settings: Losartan 50 mg, 4 weeks, type II diabetes and microalbuminuria

For `CCCCc1nc(Cl)c(CO)n1Cc1ccc(-c2ccccc2-c2nn[nH]n2)cc1` [Losartan], the “plasma TGF-β levels” value is given as “not altered” and the “urinary TGF-β levels” value is given as “significantly reduced”.
